Measurements published in PMC5835390 (Chemical communications (Cambridge, England), 2018).

Key:
[1] = test system: carboxypeptidase; assay: Carboxypeptidase treatment of albusnodin; format: in vitro ADME; conditions: reports on threaded state, Fig. S9
[2] = chromatographic, C18 column, same gradient; cited from earlier work

| Substance | Resistance to carboxypeptidase cleavage [1] | HPLC elution time (used as indication of polarity) [2] |
| --- | --- | --- |
| albusnodin | resistant to carboxypeptidase cleavage |  |
| microcin J25 (GGAGHVPEYFVGIGTPISFYG; not fully specified; Microcin J25 lasso peptide; UniProt Q9X2V7 38-58, looked up) |  | around 17 minutes |
| astexin-2 |  | around 14 minutes |
| astexin-3 |  | around 14 minutes |
| astexin-1 |  | around 14 minutes |
